This note sets out measurements from publication PMC8080530, “Glucocorticoid receptor Thr524 phosphorylation by MINK1 induces interactions with 14-3-3 protein regulators” (The Journal of Biological Chemistry, 2021).

One test deals with T1, 14-3-3σ (Homo sapiens, UniProt P31947).
T1 construct: Full-length expression and purification of 14-3-3; made in house; host or cells: E. coli BL21 (DE3)STAR
T1 sequence (P31947 1-248): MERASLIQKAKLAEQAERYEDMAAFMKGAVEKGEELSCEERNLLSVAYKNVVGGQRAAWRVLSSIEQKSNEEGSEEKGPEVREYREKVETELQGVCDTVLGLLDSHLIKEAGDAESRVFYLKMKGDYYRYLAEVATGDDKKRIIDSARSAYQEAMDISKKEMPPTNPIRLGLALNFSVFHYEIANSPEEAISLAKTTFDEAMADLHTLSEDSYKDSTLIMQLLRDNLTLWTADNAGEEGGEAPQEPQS
The test is described as follows: FP assay with GR phosphorylated peptides and 14-3-3σ. The conditions noted are these: FITC-labeled peptide titrated with 14-3-3σ, 30 min RT, triplicates. The test is classed as binding. On the procedure:
After 30-min incubation at RT, the plates were read on a plate reader PHERAstar (BMG LABTECH GmbH) for FP signal using […] and standard excitation (485 nm) and emission (520 nm). Measurements were performed as triplicates. Binding data were fit to a standard Hill equation using the software Genedata Screener. The figures were made using the software GraphPad Prism 8. FP data were expressed as millipolarization (mP) units, and the dynamic range (ΔmP) was the difference of the signals from the bound peptide and free peptide. Errors are the standard error of the fit.

The next test has as its target T2, 14-3-3ζ (Homo sapiens, UniProt P63104).
T2 construct: Full-length expression and purification of 14-3-3; made in house; host or cells: E. coli BL21 (DE3)STAR
T2 sequence (P63104 1-245): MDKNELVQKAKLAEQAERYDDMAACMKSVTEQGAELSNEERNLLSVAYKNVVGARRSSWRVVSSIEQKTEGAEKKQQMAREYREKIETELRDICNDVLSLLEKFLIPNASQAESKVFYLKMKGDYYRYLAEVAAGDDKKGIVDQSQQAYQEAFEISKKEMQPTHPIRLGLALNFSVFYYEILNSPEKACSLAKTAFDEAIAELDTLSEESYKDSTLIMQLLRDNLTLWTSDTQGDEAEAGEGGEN
The test is described as follows: FP assay with GR phosphorylated peptides and 14-3-3ζ. The conditions noted are these: for Kd: triplicates. It counts as binding. The method, boiled down: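 Fluorescence polarization (ex 485/em 520 nm) was read in triplicate after 30-min RT incubation. Binding data were fitted to a standard Hill equation and expressed in mP units. The dynamic range (ΔmP) is the difference between bound and free peptide signals.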

Test [1] deals with MINK1–14-3-3 interaction in HEK293 cells. The test is described as follows: Co-IP and far-Western blotting overlay of MINK1 with 14-3-3 after cell stimulation. It counts as cell-based. The conditions noted are these: HEK293 cells transfected with GFP-MINK1; forskolin 20 µM for 30 min, calyculin A 50 nM for 10 min. On the procedure:
The HEK293 and U2OS cell lines (American Type Culture Collection) were cultured in Dulbecco's modified Eagle's medium, supplemented with 10% fetal bovine serum and 1% penicillin-streptomycin (10,000 U/ml) at 37 °C in a 5% CO2 environment. For the Co-IP assay, 3 × 10^6 cells were seeded in a 15-cm cell culture dish. At 60 to 70% confluence, the HEK293 cells were transiently transfected with a mixture of 6-μg GFP-MINK1 or GFP-GR DNA and 24-μl lipofectamine 2000 in 2-ml Opti-MEM for 24 h. At 60 to 70% confluence, the U2OS cells were transiently transfected with a mixture of 8-μg GFP-MINK1 or GFP-GR and/or FLAG-MINK1 DNA and 32-μl X-tremeGENE 9 DNA in 2 ml Opti-MEM for 24 h. Stimulation with forskolin, H89, IGF-1, and PI303 was preceded by a cell starvation step where the cells were incubated with DMEM without supplements overnight. […]
(§1) Cells were collected and lysed in radioimmunoprecipitation assay buffer containing 50-mM Tris-HCl, pH 8, 150-mM NaCl, 1-mM EDTA, 0.1% SDS, 1% Na deoxycholate, and 1% NP-40 supplemented with a protease inhibitor cocktail. After lysis, the concentration of protein was quantified by the Bradford test. […]
(§2) Eluted proteins were resolved on a NuPAGE 4 to 12% Bis-Tris Protein Gels, 1.0 mm. […] After washing with TBST, the blots were detected using an Odyssey CLx Imaging system (LI-COR). […]

Test [2] relates to GR–14-3-3 interaction in HEK293 and U2OS cells. The experiment in a line: Co-IP and far-Western blotting overlay of GR with 14-3-3 after cell stimulation. It counts as cell-based. The conditions noted are these: HEK293 and U2OS cells transfected with WT GR, overnight starvation; forskolin 20 µM for 30 min, calyculin A 50 nM for 10 min. On the procedure: The interaction between the full-length GR and 14-3-3 was investigated in a cellular system to validate the relevance of the peptide studies.
The HEK293 and U2OS cell lines (American Type Culture Collection) were cultured in Dulbecco's modified Eagle's medium, supplemented with 10% fetal bovine serum and 1% penicillin-streptomycin (10,000 U/ml) at 37 °C in a 5% CO2 environment. For the Co-IP assay, 3 × 10^6 cells were seeded in a 15-cm cell culture dish. At 60 to 70% confluence, the HEK293 cells were transiently transfected with a mixture of 6-μg GFP-MINK1 or GFP-GR DNA and 24-μl lipofectamine 2000 in 2-ml Opti-MEM for 24 h. […]
as §1, §2
Samples containing proteins from the Co-IP assay or GR LBD in vitro phosphorylated were loaded on a NuPAGE 4 to 12% Bis-Tris Protein Gels, 1.0 mm, and separated. […] After washing with TBST, the blots were detected using an Odyssey CLx Imaging system (LI-COR). […]

Test [3] deals with T3, human 14-3-3ζ, full length, 6His-Linker-h14-3-3 (human, UniProt P63104 1-245).
T3 chain: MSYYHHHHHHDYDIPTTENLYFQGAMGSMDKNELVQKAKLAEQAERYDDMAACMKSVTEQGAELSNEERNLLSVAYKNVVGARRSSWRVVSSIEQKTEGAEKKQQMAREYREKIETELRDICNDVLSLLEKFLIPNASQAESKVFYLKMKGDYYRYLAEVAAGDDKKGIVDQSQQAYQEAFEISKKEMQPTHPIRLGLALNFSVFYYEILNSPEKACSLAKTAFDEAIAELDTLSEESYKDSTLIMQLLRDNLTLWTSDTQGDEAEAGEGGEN
The experiment in a line: SPR. For orientation: SPR reads the build-up and loss of mass on a sensor chip optically.

Like-named read-outs stand apart in the source and are kept apart here. Non-standard residues stand in square brackets, D forms with d. Residues, ends and D or L forms follow the SMILES beside them. No end group written: not given here. pT = C[C@@H](OP(=O)(O)O)[C@H](N)C(=O)O; pS = N[C@@H](COP(=O)(O)O)C(=O)O

The Kd is the equilibrium constant for the complex coming apart.

In the case of `CC[C@H](C)[C@H](NC(=O)[C@H](CCCCN)NC(=O)[C@H](CCCCN)NC(=O)[C@H](CCCCN)NC(=O)[C@@H](NC(=O)[C@H](CCCCN)NC(=O)[C@H](CCCNC(=N)N)NC(=O)[C@H](C)NC(=O)[C@H](CCC(=O)O)NC(=O)[C@H](CC(C)C)NC(=O)[C@@H](N)CC(N)=O)[C@@H](C)OP(=O)(O)O)C(=O)N[C@@H](CCCCN)C(=O)NCC(=O)O` [GR_pT493] (H-NLEARK[pT]KKKIKG-OH; N-terminus assumed), the Kd at 14-3-3σ was more than 150 µM; at 14-3-3ζ (FITC-labeled peptide 60 nM (monophosphorylated) or 10 nM (doubly phosphorylated) titrated with 14-3-3ζ, 30 min RT, Hill fit, read-out: Kd with 14-3-3ζ by FP), more than 150000 nM.
Regarding `CC[C@H](C)[C@H](NC(=O)[C@@H](NC(=O)[C@H](CCCCN)NC(C)=O)[C@@H](C)O)C(=O)N[C@H](C(=O)N1CCC[C@H]1C(=O)N[C@@H](C)C(=O)N[C@H](C(=O)N[C@@H](CC(C)C)C(=O)N1CCC[C@H]1C(=O)N[C@@H](CCC(N)=O)C(=O)N[C@@H](CC(C)C)C(=O)N[C@H](C(=O)N1CCC[C@H]1C(=O)NCC(=O)NCC(=O)NCC(=O)NCC(=O)NCC(=O)N[C@@H](CCCNC(=N)N)C(=O)N[C@@H](CO)C(=O)N[C@@H](Cc1ccc(O)cc1)C(=O)N[C@@H](CCCNC(=N)N)C(=O)N[C@@H](CCC(N)=O)C(=O)N[C@@H](CO)C(=O)N[C@@H](COP(=O)(O)O)C(=O)N[C@@H](C)C(=O)N[C@@H](CC(N)=O)C(=O)N[C@@H](CC(C)C)C(=O)N[C@@H](CC(C)C)C(=O)N[C@@H](CS)C(=O)N[C@@H](Cc1ccccc1)C(=O)O)[C@@H](C)O)[C@@H](C)OP(=O)(O)O)C(C)C` [GR_pT524-pS617] (Ac-KTIVPA[pT]LPQLTPGGGGGRSYRQS[pS]ANLLCF-OH), the Kd on 14-3-3σ turned out to be 0.053 ± 0.026 µM; on 14-3-3ζ (FP, doubly phosphorylated 31-mer peptides, read-out: Kd with 14-3-3ζ (values in nM)), 18 nM. Besides, the “fold improvement of binding affinity with 14-3-3ζ compared with the individual monomers” value on 14-3-3ζ (avidity effect of dimeric peptide) was 1000 fold.
Consider `COC[C@@H]([C@H](O)[C@H](O)C(=O)NCC[C@H](C)c1nc(/C=C/C[C@@H]2O[C@]3(C[C@@H](O)[C@@H]2C)O[C@H]([C@H](C[C@H](O)[C@H](C)[C@H](O)[C@H](C)/C=C(C)/C(C)=C/C=C/C(C)=C\C#N)OC)[C@H](OP(=O)(O)O)C3(C)C)co1)N(C)C` [calyculin A], for which the “MINK1 interaction with 14-3-3 upon stimulation” value in test [1] was “MINK1 also interacts with 14-3-3”. Moreover, the “GR interaction with 14-3-3 proteins upon stimulation” value in test [2] is reported as “GR interacted with 14-3-3 proteins”.
For `C=C[C@@]1(C)CC(=O)[C@]2(O)[C@@]3(C)[C@@H](O)CCC(C)(C)[C@@H]3[C@H](O)[C@H](OC(C)=O)[C@@]2(C)O1` [forskolin], in test [1], the “MINK1 interaction with 14-3-3 upon stimulation” value is on record as “MINK1 also interacts with 14-3-3”. Moreover, the “GR interaction with 14-3-3 proteins upon stimulation” value in test [2] is on record as “GR interacted with 14-3-3 proteins”.
The molecule KTIVPATLPQLTP (also: phosphothreonine at T524, place in chain not given here) [GR_pT524, 13-mer phosphopeptide used for SPR and crystallography] gave a Kd in test [3] of 22 µM.
